Measurements as given in US20250144067A1, “PERSONALIZED STARVATION THERAPY FOR CANCER” (Faeth Therapeutics, Inc., priority 2021, published 2025).
Structures can show the parent of a compound that is named as a salt. Where two headings read alike, the source gives them in different places.

How the values were obtained:
[1] = test system: NCI-H292 lung cancer cells; assay: FDA drug screening, complete media vs cholesterol-free media with simvastatin (TABLE 2); type: cell-based, human
[2] = test system: NCI-H292 lung cancer cells; assay: FDA drug screening, complete media vs cholesterol-free media without statin (TABLE 1); type: cell-based, human
[3] = NCI-H292 cells, FDA drug library screen, cholesterol-free media with simvastatin 0.04 μM
[4] = NCI-H292 cells, FDA drug library screen, complete media
[5] = complete media vs cholesterol-free media + simvastatin (0.04 μM), […]
[6] = NCI-H292 cells, cholesterol-free media without statin, FDA drug library screen
[7] = NCI-H292 cells, complete media, FDA drug library screen
[8] = complete vs cholesterol-free media, […]
[9] = NCI-H292 cells, drug in cholesterol-free media with simvastatin 0.04 μM
[10] = NCI-H292 cells, drug in complete media
[11] = complete media vs cholesterol-free media + simvastatin (0.04 μM), >0 enhanced anti-cancer activity, about 0 neutral, <0 antagonist
[12] = Complete minus Cholesterol-free, greater than 0 enhanced anti-cancer activity, about 0 neutral, below 0 antagonist
[13] = NCI-H292 cells, FDA drug library screen, cholesterol-free media without statin
[14] = NCI-H292 cells, FDA library drug in cholesterol-free media with simvastatin 0.04 μM
[15] = NCI-H292 cells, FDA library drug in complete media
[16] = NCI-H292 cells, cholesterol-free media without statin
[17] = complete vs cholesterol-free media, greater than 0 enhanced anti-cancer activity, about 0 neutral, below 0 antagonists
[18] = complete media minus cholesterol-free media + simvastatin, >0 enhanced anti-cancer activity, about 0 neutral, <0 antagonist
[19] = NCI-H292 cells, cholesterol-free media with simvastatin 0.04 μM, FDA drug library screen (TABLE 2)
[20] = NCI-H292 cells, complete media, FDA drug library screen (TABLE 2)
[21] = complete media minus cholesterol-free media + simvastatin (0.04 μM), >0 enhanced anti-cancer activity, about 0 neutral, <0 antagonist
[22] = Complete minus Cholesterol-free, >0 enhanced anti-cancer activity, about 0 neutral, <0 antagonist
[23] = Complete minus Cholesterol-free, […]
[24] = Complete minus Cholesterol-free, greater than 0 enhanced anti-cancer activity, about 0 neutral, below 0 antagonists
[25] = NCI-H292 cells in cholesterol-free media without statin
[26] = NCI-H292 cells in complete media
[27] = NCI-H292 cells, cholesterol-free media with simvastatin 0.04 μM, cell growth value in FDA drug screen

Compound: Polidocanol
- Cholesterol-free media + simvastatin (0.04 μM) [1, 3]: 1.046
- Complete Media [1, 4]: 0.8917
- Difference [1, 5]: −0.15
- Cholesterol-free [2, 6]: 0.7606
- Complete [2, 7]: 0.9235
- Difference [2, 8]: 0.16

Compound: CCO.C[C@H]1c2cccc(O)c2C(O)=C2C(=O)[C@]3(O)C(O)=C(C(N)=O)C(=O)[C@@H](N(C)C)[C@@H]3[C@@H](O)[C@@H]21.C[C@H]1c2cccc(O)c2C(O)=C2C(=O)[C@]3(O)C(O)=C(C(N)=O)C(=O)[C@@H](N(C)C)[C@@H]3[C@@H](O)[C@@H]21.Cl.Cl.O [Doxycycline (hyclate)]
- Cholesterol-free media + simvastatin (0.04 μM) [1, 9]: 1.074
- Complete Media [1, 10]: 0.8852
- Difference [1, 11]: −0.19
- Difference [2, 12]: −0.15
- Cholesterol-free [2, 13]: 1.09
- Complete [2, 4]: 0.9355

Compound: CC(C)OC(=O)OCOP(=O)(CO[C@H](C)Cn1cnc2c(N)ncnc21)OCOC(=O)OC(C)C.O=C(O)/C=C/C(=O)O [Tenofovir (Disoproxil Fumarate)]
- Cholesterol-free media + simvastatin (0.04 μM) [1, 14]: 1.321
- Complete Media [1, 15]: 0.7221
- Difference [1, 11]: −0.60
- Cholesterol-free [2, 16]: 1.163
- Complete ([2]; NCI-H292 cells, complete media): 0.7425
- Difference [2, 17]: −0.42

Compound: CN1C(C(=O)Nc2ccccn2)=C(O)c2sccc2S1(=O)=O [Tenoxicam]
- Cholesterol-free media + simvastatin (0.04 μM) [1, 3]: 0.6836
- Complete Media [1, 4]: 0.8819
- Difference [1, 18]: 0.20
- Cholesterol-free [2, 16]: 1.354
- Complete ([2]; NCI-H292 cells, complete media): 0.9821
- Difference [2, 17]: −0.37

Compound: COc1ccc2cc(CCC(C)=O)ccc2c1 [Nabumetone]
- Cholesterol-free media + simvastatin (0.04 μM) [1, 14]: 1.525
- Complete Media [1, 15]: 1.112
- Difference [1, 11]: −0.41
- Difference [2, 12]: −0.18
- Cholesterol-free [2, 13]: 1.034
- Complete [2, 4]: 0.8533

Compound: CN(C)C(=O)Oc1cccc([N+](C)(C)C)c1.[Br-] [Neostigmine (Bromide)]
- Cholesterol-free media + simvastatin (0.04 μM) [1]: 0.9188
- Complete Media [1]: 1.066
- Difference [1]: 0.15
- Cholesterol-free [2]: 1.008
- Complete [2]: 0.8252
- Difference [2]: −0.18

Compound: C#Cc1cccc(Nc2ncnc3cc4c(cc23)OCCOCCOCCO4)c1 [Icotinib (Hydrochloride)]
- Cholesterol-free media + simvastatin (0.04 μM) [1, 19]: 0.5866
- Complete Media [1, 20]: 0.5343
- Difference [1, 21]: −0.05
- Difference [2, 22]: 0.05
- Cholesterol-free [2, 6]: 0.2697
- Complete [2, 7]: 0.324

Compound: CO[C@H]1O[C@H](COS(=O)(=O)O)[C@@H](O[C@@H]2O[C@@H](C(=O)O)[C@@H](O[C@H]3O[C@H](COS(=O)(=O)O)[C@@H](O[C@@H]4O[C@H](C(=O)O)[C@@H](O[C@H]5O[C@H](COS(=O)(=O)O)[C@@H](O)[C@H](O)[C@H]5NS(=O)(=O)O)[C@H](O)[C@H]4O)[C@H](OS(=O)(=O)O)[C@H]3NS(=O)(=O)O)[C@H](O)[C@H]2OS(=O)(=O)O)[C@H](O)[C@H]1NS(=O)(=O)O [Fondaparinux (sodium)]
- Cholesterol-free media + simvastatin (0.04 μM) [1, 14]: 1.182
- Complete Media [1, 15]: 0.8937
- Difference [1, 11]: −0.29
- Difference [2, 12]: −0.10
- Cholesterol-free [2, 13]: 1.098
- Complete [2, 4]: 1

Compound: O=C(O)CCCCC1CCSS1 (stereo not drawn) [α-Lipoic Acid]
- Cholesterol-free media + simvastatin (0.04 μM) [1, 3]: 1.116
- Complete Media [1, 4]: 1.004
- Difference [1, 11]: −0.11
- Difference [2, 12]: −0.15
- Cholesterol-free [2, 13]: 1.192
- Complete [2, 4]: 1.044

Compound: O=c1cc(-c2ccccc2)oc2cc(O)c(O)c(O)c12 [Baicalein]
- Cholesterol-free media + simvastatin (0.04 μM) [1, 9]: 1.347
- Complete Media [1, 10]: 1.087
- Difference [1, 11]: −0.26
- Cholesterol-free [2, 16]: 1.261
- Complete ([2]; NCI-H292 cells, complete media): 0.9313
- Difference [2, 17]: −0.33

Compound: COS(=O)(=O)[O-].COc1cc(N)cn[n+]1-c1ccccc1 [Amezinium (methylsulfate)]
- Cholesterol-free media + simvastatin (0.04 μM) [1, 3]: 1.322
- Complete Media [1, 4]: 1.744
- Difference ([1]; complete media minus cholesterol-free media + simvastatin, […]): 0.42
- Cholesterol-free [2, 6]: 1.242
- Complete [2, 7]: 1.933
- Difference [2, 8]: 0.69

Compound: C[C@H](CSC(=O)c1ccccc1)C(=O)N1C[C@@H](Sc2ccccc2)C[C@H]1C(=O)O [Zofenopril (calcium)]
- Cholesterol-free media + simvastatin (0.04 μM) [1, 19]: 0.8443
- Complete Media [1, 20]: 0.8399
- Difference ([1]; complete media minus cholesterol-free media + simvastatin (0.04 μM), […]): 0.00
- Difference [2, 23]: −0.03
- Cholesterol-free [2, 6]: 1.281
- Complete [2, 7]: 1.25

Compound: CC(C)(N)CNC(=O)C[C@H]1CC[C@]2(CC1)OO[C@]1(O2)C2CC3CC(C2)CC1C3 [Arterolane]
- Cholesterol-free media + simvastatin (0.04 μM) [1, 3]: 1.129
- Complete Media [1, 4]: 1.314
- Difference [1, 18]: 0.19
- Difference [2, 12]: −0.17
- Cholesterol-free [2, 13]: 1.167
- Complete [2, 4]: 0.9934

Compound: CC(C)CN(C[C@@H](OP(=O)(O)O)[C@H](Cc1ccccc1)NC(=O)O[C@H]1CCOC1)S(=O)(=O)c1ccc(N)cc1 [Fosamprenavir]
- Cholesterol-free media + simvastatin (0.04 μM) [1, 3]: 1.194
- Complete Media [1, 4]: 1.12
- Difference [1, 11]: −0.07
- Difference [2, 22]: −0.06
- Cholesterol-free [2, 6]: 0.7855
- Complete [2, 7]: 0.7241

Compound: CCCCCCCCCCCCCCCCOP(=O)([O-])OCC[N+](C)(C)C [Miltefosine]
- Cholesterol-free media + simvastatin (0.04 μM) [1, 9]: 1.237
- Complete Media [1, 10]: 0.9911
- Difference [1, 11]: −0.25
- Difference [2, 22]: −0.07
- Cholesterol-free [2, 6]: 1.003
- Complete [2, 7]: 0.9345

Compound: Nc1ncnc2c1ncn2[C@@H]1O[C@H](CO)[C@@H](O)[C@H]1O [Adenosine]
- Cholesterol-free media + simvastatin (0.04 μM) [1, 14]: 1.888
- Complete Media [1, 15]: 1.6
- Difference [1, 11]: −0.29
- Difference [2, 12]: −0.14
- Complete [2, 4]: 0.8055

Compound: c1ccc(C2CN3CCSC3=N2)cc1 (stereo not drawn) [Tetramisole (hydrochloride)]
- Cholesterol-free media + simvastatin (0.04 μM) [1, 19]: 1.011
- Complete Media [1, 20]: 0.9757
- Difference [1, 21]: −0.04
- Cholesterol-free [2, 16]: 1.362
- Complete ([2]; NCI-H292 cells, complete media): 0.9185
- Difference [2, 17]: −0.44

Compound: C[C@H]1C[C@H]2[C@@H]3CCC4=CC(=O)C=C[C@]4(C)[C@@]3(F)[C@@H](O)C[C@]2(C)[C@@]1(O)C(=O)CO [Betamethasone]
- Cholesterol-free media + simvastatin (0.04 μM) [1, 3]: 1.093
- Complete Media [1, 4]: 0.9456
- Difference [1, 11]: −0.15
- Difference [2, 22]: −0.03
- Cholesterol-free [2, 6]: 0.6463
- Complete [2, 7]: 0.6113

Compound: O=C(O)CC(O)(CC(=O)O)C(=O)O [Citric acid]
- Cholesterol-free media + simvastatin (0.04 μM) [1, 19]: 1.227
- Complete Media [1, 20]: 1.209
- Difference [1, 21]: −0.02
- Difference [2, 12]: −0.17
- Cholesterol-free [2, 13]: 0.92
- Complete [2, 4]: 0.7466

Compound: Asenapine (maleate)
- Cholesterol-free media + simvastatin (0.04 μM) [1, 9]: 1.309
- Complete Media [1, 10]: 1.135
- Difference [1, 11]: −0.17
- Difference [2, 24]: −0.56
- Cholesterol-free [2, 25]: 1.49
- Complete [2, 26]: 0.9322

Compound: Cc1cccc(N2CC(CO)OC2=O)c1 (stereo not drawn) [Toloxatone]
- Cholesterol-free media + simvastatin (0.04 μM) [1, 19]: 1.023
- Complete Media [1, 20]: 1.032
- Difference [1, 21]: 0.01
- Difference [2, 24]: −0.48
- Cholesterol-free [2, 25]: 1.574
- Complete [2, 26]: 1.099

Compound: Clemastine (fumarate)
- Cholesterol-free media + simvastatin (0.04 μM) [1, 27]: 0.8829
- Difference [1, 18]: 0.12
- Difference [2, 24]: −0.61
- Cholesterol-free [2, 25]: 1.716

Compound: Cl.N[C@@H](CS)C(=O)O [L-Cysteine (hydrochloride)]
- Cholesterol-free media + simvastatin (0.04 μM) [1, 9]: 1.122
- Complete Media [1, 10]: 0.9187
- Difference [1, 5]: −0.20
- Difference [2, 23]: −0.04
- Cholesterol-free [2, 6]: 1.166
- Complete [2, 7]: 1.124

Compound: O=C(O[C@H]1CN2CCC1CC2)N1CCc2ccccc2[C@@H]1c1ccccc1 [Solifenacin (hydrochloride)]
- Cholesterol-free media + simvastatin (0.04 μM) [1, 27]: 0.865
- Complete Media ([1]; NCI-H292 cells, complete media, cell growth value in FDA drug screen): 0.978
- Difference [1, 18]: 0.11
- Cholesterol-free [2, 16]: 1.128
- Complete ([2]; NCI-H292 cells, complete media): 0.8222
- Difference [2, 17]: −0.31

Compound: CC#CCC(C)[C@H](O)/C=C/[C@@H]1[C@H]2C/C(=C/CCCC(=O)O)C[C@H]2C[C@H]1O (stereo partly drawn) [Iloprost]
- Cholesterol-free media + simvastatin (0.04 μM) [1, 9]: 1.189
- Complete Media [1, 10]: 0.9963
- Difference [1, 11]: −0.19
- Difference [2, 24]: −0.58
- Cholesterol-free [2, 25]: 1.473
- Complete [2, 26]: 0.8944

Compound: Cc1ccc2c(Cl)cc(Cl)c(O)c2n1 [Chlorquinaldol]
- Cholesterol-free media + simvastatin (0.04 μM) [1, 19]: 0.0008861
- Complete Media [1, 20]: 0.007501
- Difference [1, 21]: 0.01
- Difference [2, 22]: 0.01
- Cholesterol-free [2, 6]: 0.003949
- Complete [2, 7]: 0.01849

Compound: Bremelanotide (Acetate)
- Cholesterol-free media + simvastatin (0.04 μM) [1, 14]: 1.644
- Complete Media [1, 15]: 1.021
- Difference [1, 5]: −0.62
- Difference [2, 23]: −0.90
- Cholesterol-free [2, 25]: 1.638
- Complete [2, 26]: 0.7395

Compound: OC[C@H]1O[C@@](CO)(O[C@H]2O[C@H](CO)[C@@H](O)[C@H](O)[C@H]2O)[C@@H](O)[C@@H]1O [Sucrose]
- Cholesterol-free media + simvastatin (0.04 μM) [1, 14]: 1.867
- Complete Media [1, 15]: 0.9772
- Difference [1, 11]: −0.89
- Difference [2, 24]: −0.74
- Cholesterol-free [2, 25]: 1.582
- Complete [2, 26]: 0.843
